# Measured values from patent publication US20070031815A1, “Screening method for identifying hsp90 modulators” (University of Liverpool, priority 2003, published 2007).
# Tested on: yeast cells
# Experiment: Entry of known Hsp90 inhibitors into yeast cells
# Assay type: cell-based
# Conditions: not given
# Description: Yeast have many advantages in development of screening systems or biosensors-compared to mammalian cells they are robust; easy and cheap to grow; genetically stable; and represent a reduced health risk to workers (viral contamination of cell lines becomes an issue in low cost high throughput screening). […] However, yeast are not always permeable to compounds that would be able to enter mammalian cells. […] This problem has been overcome in the past by using yeast mutants that have enhanced sensitivity to toxic chemicals. These mutations are in genes described as Pleiotrophic Drug Resistance (PDR) or Multiple Drug Resistance (MDR) gene. One class of PDR genes are those affecting the ergosterol balance in the yeast membrane. Mammalian cells have cholesterol in the plasma membrane while yeast have ergosterol. Mutations in the gene ERG6 (ISE1) cause cells to become sensitive to a range of lipophilic drugs. Another class of mutations affect active drug uptake or efflux, for example mutations to the ATP dependent efflux pump PDR5 increase drug sensitivity. A combination of mutations from these different pathways further increases sensitivity. In addition to increasing permeability of the plasma membrane and reducing efflux better drug entry can also be brought about by changing the cell wall structure, this can also increase osmotic sensitivity, which facilitates release of proteins. Mutation of the GDP-mannose phosphorylase (SRB1) interferes with the glycosylation of cell wall proteins, this increases drug and osmotic sensitivity. Hsp90 itself is also involved in the maintenance of cell wall integrity via its functional interaction with Ste11. Ste11 is a MAPKKK that normally activates the MAPKK Pbs2 which in turn activates the Hog-1 transcriptional activator. Hog-1 activation modifies the cell wall in response to osmotic shock, disruption of Hog-1 causes drug and osmotic sensitivity. There are also dominant mutations which increase sensitivity to cytotoxic agents, such as ISE2 which increases sensitivity to a range of topoisomerase II inhibitors.
row,SMILES,entry into yeast cells
1,"CO[C@H]1[C@@H](OC)C[C@H](C)[C@@H](OC)C2=CC(=O)C=C(NC(=O)/C(C)=C/C=C\[C@H](C)[C@@H](OC(N)=O)/C(C)=C/[C@@H]1C)C2=O [Macbecin, Macbecin I]",enter yeast cells easily

# Same assay, conditions: yeast permeability
row,SMILES,entry into yeast cells
1,C[C@@H]1C[C@H]2O[C@@H]2/C=C\C=C\C(=O)Cc2c(Cl)c(O)cc(O)c2C(=O)O1 [Radicicol],enter yeast cells easily
2,"C=CCNC1=C2C[C@@H](C)C[C@H](OC)[C@H](O)[C@@H](C)/C=C(\C)[C@H](OC(N)=O)[C@@H](OC)/C=C\C=C(/C)C(=O)NC(=CC1=O)C2=O [Compound 17-AAG, 17-allylamino demethoxy geldanamycin]",enter yeast cells easily
3,CO[C@@H]1[C@@H](OC(N)=O)[C@@H](O)[C@H](Oc2ccc3c(O)c(NC(=O)c4ccc(O)c(CC=C(C)C)c4)c(=O)oc3c2C)OC1(C)C [Novobiocin],enter yeast cells easily
4,"COC1=C2C[C@@H](C)C[C@H](OC)[C@H](O)[C@@H](C)/C=C(\C)[C@H](OC(N)=O)[C@@H](OC)/C=C\C=C(/C)C(=O)NC(=CC1=O)C2=O [GA, Geldanamycin]",enter yeast cells easily
5,CO[C@H]1[C@@H](OC)C[C@H](C)[C@@H](OC)C2=CC(=O)C=C(NC(=O)/C(C)=C/C=C\[C@H](OC)[C@@H](OC(N)=O)/C(C)=C/[C@@H]1C)C2=O [Herbimycin],enter yeast cells easily
